Measurements from patent US20180273534A1, “PYRAZOLOPYRIDINE SULFONAMIDES AS NEMATICIDES” (BAYER CROPSCIENCE AKTIENGESELLSCHAFT, priority 2014, published 2018).

Tests used:
Assay type in all cases: in vivo
Myzus persicae = Myzus persicae spray test; conditions: application rate 500 g/ha; after 6 days; sprayed Chinese cabbage leaf disks; 100% = all aphids killed
Protocol: Myzus Persicae—Spray Test
(§1) Solvent: 78.0 parts by weight acetone • 1.5 parts by weight dimethylformamide
(§2) Emulsifier: alkylarylpolyglycol ether
(§3) To produce a suitable preparation of active compound, 1 part by weight of active compound is mixed with the stated amount of solvents and is diluted with water, containing an emulsifier concentration of 1000 ppm, to the desired concentration. Further test concentrations are prepared by dilution with emulsifier containing water.
Chinese cabbage (Brassica pekinensis) leaf disks infected with all instars of the green peach aphid (Myzus persicae), are sprayed with a preparation of the active ingredient of the desired concentration.
After 6 days mortality in % is determined. 100% means all aphids have been killed and 0% means none of the aphids have been killed.

Meloidogyne incognita [1] = test: Meloidogyne incognita test (sand, salad seedlings, gall formation); conditions: application rate 20 ppm, after 14 days, 100% = no galls, 0% = galls equal to untreated control
Protocol: Meloidogyne Incognita—Test
Solvent: 125.0 parts by weight of acetone
To produce a suitable preparation of active compound, 1 part by weight of active compound is mixed with the stated amount of solvent, and the concentrate is diluted with water to the desired concentration.
Vessels are filled with sand, a solution of the active ingredient, a suspension containing eggs and larvae of the southern root-knot nematode (Meloidogyne incognita) and salad seeds. The salad seeds germinate and the seedlings grow. Galls develop in the roots.
After 14 days the nematicidal activity is determined on the basis of the percentage of gall formation. 100% means no galls were found and 0% means the number of galls found on the roots of the treated plants was equal to that in untreated control plants.

Tetranychus urticae = Tetranychus urticae spray test OP-resistant; conditions: application rate 500 g/ha, after 6 days, sprayed French bean leaf disks, 100% = all spider mites killed
Protocol: Tetranvechus urticae—spray test OP-resistant
as §1, §2, §3
French bean (Phaseolus vulgaris) leaf disks which are heavily infested with all stages of the two spotted spidermite (Tetranychus urticae), are sprayed with a preparation of the active ingredient of the desired concentration.
After 6 days mortality in % is determined. 100% means all spider mites have been killed and 0% means none of the spider mites have been killed.

Meloidogyne incognita [2] = test: Meloidogyne incognita test (soil drench, loamy sand, gall formation); conditions: application rate 8 ppm, after 21 days, salad seedlings, 100% = no galls
Protocol: Meloidogyne incognita—Test
Solvent: 7 parts by weight of dimethylformamide
Emulsifier: 2.5 parts by weight of alkylarylpolyglycolether
To produce a suitable preparation of active compound, 1 part by weight of active compound is mixed with the stated amount of solvent and emulsifier and is diluted with water to the desired concentration. In the calculation of the concentration the soil volume has to be included. […] Further test concentrations are prepared by dilution with water.
The compound solution is poured into pots filled with soil (loamy sand). A suspension containing eggs and larvae of the southern root-knot nematode (Meloidogyne incognita) is added, salad seeds are spread on the soil surface and covered with quartz sand. The salad seeds germinate and the seedlings grow. Galls develop on the roots.
After 21 days the nematicidal activity is determined on the basis of the percentage of gall formation. 100% means no galls were found; 0% means the number of galls found on the roots of the treated plants was equal to that in untreated control plants.

SMILES | mortality (Myzus persicae) [%] | nematicidal activity on the basis of the percentage of gall formation (Meloidogyne incognita [1]) [%] | mortality (Tetranychus urticae) [%] | nematicidal activity on the basis of the percentage of gall formation (Meloidogyne incognita [2]) [%]
CS(=O)(=O)NC(=O)c1cc2c(Cl)cc(C(F)(F)F)cn2n1 [Example I-15] | 100 | 90 | 85 | –
O=C(NS(=O)(=O)c1ccccc1Cl)c1cc2cc(Cl)cc(Cl)n2n1 [Example I-46] | 90 | 90 | – | –
O=C(NS(=O)(=O)c1cc(Cl)ccc1Cl)c1cc2cc(Cl)cc(Cl)n2n1 [Example I-47] | – | – | – | 80
